Data on 9 compounds can be found in patent US10407445B2, “Hepatitis C virus inhibitors” (ENANTA PHARMACEUTICALS, INC., priority 2013, dated 2019).

The structures appear in SMILES notation. Read-outs that look alike come from different tables or passages of the source.

The nature of data set [1]: IV and PO single dose pharmacokinetic studies in SD rats. The data set is classed as in vivo. As to conditions: Sprague-Dawley, rat, plasma, male SD rats. As for the experimental part: The pharmacokinetics of selected compounds was characterized in male Sprague-Dawley (SD) rats (250-300 g). […] The intravenous (IV) dosing vehicle was 5% ethanol and 95% of 20% 2-hydroxypropyl β-cyclodextrin in water. The oral dosing vehicle was 33% of Microemulsion Preconcentrate #5 (a lipid based self-emulsifying drug delivery system, SEDDS) and 67% of 50 mM citrate buffer (final pH 3.6).
Serial blood samples (approximately 0.3 mL each) were collected from jugular vein or other suitable vein at specified time points. For the IV dosing group, the blood samples were collected predose and at 0.08, 0.25, 0.50, 1, 3, 6, 8, and 24 hours after the start of dosing. For the oral group, the blood samples were collected predose and at 0.08, 0.25, 0.50, 1, 3, 6, 8, and 24 hours after dosing. The blood samples were collected into VACUTAINER™ tubes containing EDTA-K3 as the anti-coagulant and were centrifuged at approximately 4° C. to obtain plasma. The plasma samples were stored at −20° C. until analysis by LC/MS/MS.
A bioanalytical method utilizing high performance liquid chromatography coupled to tandem mass spectrometry (LC/MS/MS) was developed for analysis of the selected compound in rat plasma. Detection was performed using multiple reaction monitoring (MRM); Ions representing the precursor (M+H)^+ species was selected in quadrupole 1 (Q1) and collided with nitrogen gas in the collision cell (Q2) to generate specific product ion, which was subsequently monitored by quadrupole 3 (Q3). Standard curve and quality control samples were prepared in male rat plasma and processed in the same way as the test samples to generate quantitative data.
Pharmacokinetic parameters were generated using non-compartmental pharmacokinetic analysis (Phoenix WinNonlin, version 6.3). Values below the lower limit of quantification (LLOQ) were assigned a value of zero if predose and treated as missing thereafter. Area under the curve (AUC) was calculated using the linear trapezoidal rule. The oral bioavailability (% F) was determined by comparison of the area under the curve (AUC) of the compound in plasma following oral administration to that generated following intravenous administration.

Data set [2] concerns HCV genotype 1a replicon, NS5A H58D. As to the kind of experiment: Transient replication assay, GT1a NS5A H58D. In kind it is cell-based. Conditions: Hepatitis C virus.
Data set [3] deals with GT1a replicon encoding NS5A mutation Q30R. The data set is described as follows: Transient replication assay, GT1a replicon with NS5A mutation Q30R. As to conditions: Hepatitis C virus. In kind it is cell-based.
Data set [4] relates to GT1a replicon encoding NS5A mutation Y93C. As to the kind of experiment: Transient replication assay, GT1a replicon with NS5A mutation Y93C. The data set is classed as cell-based. Conditions: Hepatitis C virus.
In the next data set the test system is HCV GT 1a replicon. As to the kind of experiment: HCV replicon assay, stable GT 1a replicon (Renilla luciferase). The data set is classed as cell-based. As to conditions: Hepatitis C virus, GT1A. In outline:
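Huh-7.5 cells stably carrying a GT1a replicon (H77-based) with Renilla luciferase-Neo reporter, 4000 cells/well, sixteen-point half-log compound series, phenol red-free DMEM without G418. Luciferase read after 72 h relative to DMSO-treated cells gives EC50.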

Where [5] appears, read: oral gavage 20 mg/kg vs IV bolus 2 mg/kg.
[6] abbreviates: HCV GT 1a replicon, 72 h, read-out: EC50 1a.

For the compound `COC(=O)N[C@H](C(=O)N1C[C@]2(CCCOC2)C[C@H]1c1ncc(-c2ccc(-c3ccc4c(ccc5nc([C@@H]6C[C@@H]7CCC[C@@H]7N6C(=O)[C@@H](NC(=O)OC)C(C)C)[nH]c54)c3)cc2)[nH]1)C(C)C` [Compound 16], in data set [1] (setting [5]), the bioavailability came to 23.7%. Further, the EC50 in data set [2] is 0.01 nM; in data set [3] (read-out: EC50 1a Q30R) it was 0.02 nM; in data set [4] (read-out: EC50 1a Y93C), 0.3 nM; in the data set with HCV GT 1a replicon (setting [6]), 0.009 nM.

Turning to `COC(=O)N[C@H](C(=O)N1C[C@]2(CCCOC2)C[C@H]1c1ncc(-c2ccc(-c3ccc4c(ccc5nc([C@@H]6C[C@@H]7COC[C@@H]7N6C(=O)[C@@H](NC(=O)OC)C(C)C)[nH]c54)c3)cc2)[nH]1)C(C)C` [Compound 35], the bioavailability in data set [1] (setting [5]) turned out to be 1.1%. Besides, the EC50 came to 0.07 nM in data set [3] (read-out: EC50 1a Q30R), 0.4 nM in data set [4] (read-out: EC50 1a Y93C) and 0.028 nM in the data set on HCV GT 1a replicon (setting [6]).

On to `COC(=O)N[C@H](C(=O)N1C[C@]2(CCCOC2)C[C@H]1c1ncc(-c2ccc(-c3ccc(-c4cnc([C@@H]5C[C@@H]6CCC[C@@H]6N5C(=O)[C@@H](NC(=O)OC)C(C)C)[nH]4)cc3)cc2)[nH]1)C(C)C` [Compound 37], for which, in data set [1] (setting [5]), the bioavailability turned out to be 114%. The EC50 in data set [3] (read-out: EC50 1a Q30R) is 0.02 nM; in data set [4] (read-out: EC50 1a Y93C), 1 nM; with HCV GT 1a replicon (setting [6]), 0.008 nM.

Consider `COC(=O)N[C@H](C(=O)N1CCC[C@H]1c1ncc(-c2ccc(-c3ccc4c(ccc5nc([C@@H]6C[C@@]7(CCCOC7)CN6C(=O)[C@@H](NC(=O)OC)C(C)C)[nH]c54)c3)cc2)[nH]1)C(C)C` [Compound 44], for which, in data set [1] (setting [5]), the bioavailability is 14.8%. Further, the EC50 stood at 0.1 nM in data set [3] (read-out: EC50 1a Q30R), 0.2 nM in data set [4] (read-out: EC50 1a Y93C) and 0.01 nM in the data set on HCV GT 1a replicon (setting [6]).

With `COC(=O)N[C@H](C(=O)N1C[C@]2(CCCOC2)C[C@H]1c1ncc(-c2ccc(-c3ccc4c(ccc5nc([C@@H]6CCCN6C(=O)[C@@H](NC(=O)OC)C(C)C)[nH]c54)c3)cc2)[nH]1)C(C)C` [Compound 47], in data set [1] (setting [5]), the bioavailability turned out to be 7%. The EC50 in data set [3] (read-out: EC50 1a Q30R) was 0.1 nM; in data set [4] (read-out: EC50 1a Y93C), 0.3 nM; in the data set on HCV GT 1a replicon (setting [6]), 0.015 nM.

As to `COC(=O)N[C@H](C(=O)N1CCC[C@H]1c1nc2ccc3cc(-c4ccc5c(ccc6nc([C@@H]7C[C@@]8(CCCOC8)CN7C(=O)[C@@H](NC(=O)OC)C(C)C)[nH]c65)c4)ccc3c2[nH]1)C(C)C` [Compound 48], in data set [1] (setting [5]), the bioavailability is 1.7%. In addition, the EC50 was determined as 0.05 nM in data set [3] (read-out: EC50 1a Q30R), 0.02 nM in data set [4] (read-out: EC50 1a Y93C) and 0.006 nM in the data set on HCV GT 1a replicon (setting [6]).

In the case of `COC(=O)N[C@H](C(=O)N1CCC[C@H]1c1ncc(-c2ccc(-c3ccc4c(ccc5nc([C@@H]6C[C@]7(CCOC7)CN6C(=O)[C@@H](NC(=O)OC)C(C)C)[nH]c54)c3)cc2)[nH]1)C(C)C` [Compound 51], the bioavailability in data set [1] (setting [5]) was found to be 8.6%. For the same compound, the EC50 was found to be 0.2 nM in data set [3] (read-out: EC50 1a Q30R), 0.07 nM in data set [4] (read-out: EC50 1a Y93C) and 0.011 nM with HCV GT 1a replicon (setting [6]).

The compound `COC(=O)N[C@H](C(=O)N1CCC[C@H]1c1nc(-c2ccc(-c3ccc(-c4c[nH]c([C@@H]5CCCN5C(=O)[C@@H](NC(=O)OC)C(C)C)n4)cc3)cc2)c[nH]1)C(C)C` [Daclatasvir, reference compound] displayed an EC50 in data set [2] of 1.2 nM.

As to `COC(=O)N[C@H](C(=O)N1C[C@]2(CCCOC2)C[C@H]1c1ncc(-c2ccc(-c3ccc4c(ccc5nc([C@@H]6CCCN6C(=O)[C@@H](NC(=O)OC)C(C)C)[nH]c54)c3)cc2)[nH]1)C(C)C` [drawing 233], in data set [1] (comparative table, oral 20 mg/kg vs IV), the bioavailability was found to be 7%. Moreover, the EC50 in data set [3] (read-out: EC50 (nM) 1a Q30R) came out at 0.1 nM; in data set [4] (read-out: EC50 (nM) 1a Y93C), 0.3 nM; with HCV GT 1a replicon (comparative table, GT 1a, read-out: EC50 (nM) 1a), 0.01 nM.
